Target: T1, GTPase KRas [1-37] (Homo sapiens, UniProt G3V5T7)
T1 construct: 1-37
Assay: Ras wt fluorescent nucleotide binding blockade – biochemical, additional analogs, wildtype, multiplex flow cytometry, Ki, SAR follow-up (AID 2038)

T1 sequence (G3V5T7 whole entry): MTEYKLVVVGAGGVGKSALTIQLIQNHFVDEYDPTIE

## O=C1N=c2c(Br)cccc2=C1c1[nH]c2ccccc2c1NO [7-bromanyl-3-[3-(oxidanylamino)-1H-indol-2-yl]indol-2-one]
  Ki: 5.85 µM
